Data on 15 compounds can be found in patent US10280163B2 (BeiGene, Ltd., priority 2015, dated 2019).

For experiment [1], the target named is T1, Recombinant TDO (Homo sapiens, UniProt P48775).
T1 construct: His tag (C); made in house; host or cells: E. coli
The experiment can be described thus: TDO enzymatic assay. Format: biochemical. On the procedure:
Recombinant TDO was overexpressed and purified from E. coli cells with a C-terminal His tag. TDO enzymatic assay was performed using the same methodology as IDO1 enzymatic assay except that 100 nM TDO and 0.5 mM L-tryptophan (Km concentration) were used in the TDO assay.

For experiment [2], the target named is T2, cellular IDO1 in HeLa cells (Homo sapiens, UniProt P14902).
T2 construct: endogenous in cells; host or cells: HeLa cells (American Type Tissue Culture Collection), induced with human recombinant IFN-γ
The experiment can be described thus: HeLa cell-based IDO1 Kyn (kynurenine) production assay. The following applies: Table 1, 5-substituted imidazo[1,5-a]pyridines, IFN-γ 100 ng/mL, 48 hours. The method, boiled down: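 IFN-γ-induced HeLa cells (100 ng/mL) in phenol red-free DMEM with 0.4 mM L-Trp, compounds added together with IFN-γ, 48 h at 37 °C. Supernatant Kyn read at 480 nm after TCA precipitation and 4-(dimethylamino)benzaldehyde reaction. IC50 from four-parameter logistic fit.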

Experiment [3] addresses T3, Recombinant IDO1 (Homo sapiens, UniProt P14902).
T3 construct: His tag (N); made in house; host or cells: E. coli
The experiment can be described thus: IDO1 enzymatic assay. Format: biochemical. In outline: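 N-terminally His-tagged enzyme from E. coli (50 nM) was incubated with compound, 1.3 mM D-tryptophan, 5 mM ascorbate, 6.25 μM methylene blue and 0.4 mg/mL catalase in 50 mM potassium phosphate pH 7.5, 0.1% BSA for 1.5 h at 24° C. N′-formylkynurenine formation was followed at 321 nm for 1 h; IC50 from rate slopes.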

The mark [4] stands for this setting: Table 1, 5-substituted imidazo[1,5-a]pyridines, 100 nM TDO, 0.5 mM L-tryptophan, read-out: Enzyme IC50 (nM) TDO.
[5] abbreviates: Table 1, 5-substituted imidazo[1,5-a]pyridines, 50 nM IDO1, 1.3 mM D-tryptophan, read-out: Enzyme IC50 (nM) IDO1.
[6] abbreviates: selectivity examples, read-out: enzymatic IC50 value to TDO.
The mark [7] stands for this setting: selectivity examples, read-out: enzymatic IC50 value to IDO1.

By IC50 is commonly meant the concentration at which inhibition is half-maximal. One may read the EC50 as the concentration needed to bring the measured effect to its halfway point. A lower EC50 goes with greater potency.

Structures are written as SMILES. Like-named read-outs stand apart in the source and are kept apart here.

T1 sequence (P48775 whole entry): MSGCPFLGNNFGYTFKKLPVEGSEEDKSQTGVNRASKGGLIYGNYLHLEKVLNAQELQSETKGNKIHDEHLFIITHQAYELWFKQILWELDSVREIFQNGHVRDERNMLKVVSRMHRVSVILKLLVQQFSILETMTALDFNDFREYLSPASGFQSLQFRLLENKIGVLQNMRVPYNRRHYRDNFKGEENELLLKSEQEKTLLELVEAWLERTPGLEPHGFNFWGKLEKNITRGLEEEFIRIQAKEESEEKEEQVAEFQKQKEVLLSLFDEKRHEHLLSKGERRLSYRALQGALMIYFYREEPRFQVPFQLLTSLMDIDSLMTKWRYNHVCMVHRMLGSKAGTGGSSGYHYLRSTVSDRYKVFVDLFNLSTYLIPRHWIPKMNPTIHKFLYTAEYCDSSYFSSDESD
T3 sequence (P14902 whole entry): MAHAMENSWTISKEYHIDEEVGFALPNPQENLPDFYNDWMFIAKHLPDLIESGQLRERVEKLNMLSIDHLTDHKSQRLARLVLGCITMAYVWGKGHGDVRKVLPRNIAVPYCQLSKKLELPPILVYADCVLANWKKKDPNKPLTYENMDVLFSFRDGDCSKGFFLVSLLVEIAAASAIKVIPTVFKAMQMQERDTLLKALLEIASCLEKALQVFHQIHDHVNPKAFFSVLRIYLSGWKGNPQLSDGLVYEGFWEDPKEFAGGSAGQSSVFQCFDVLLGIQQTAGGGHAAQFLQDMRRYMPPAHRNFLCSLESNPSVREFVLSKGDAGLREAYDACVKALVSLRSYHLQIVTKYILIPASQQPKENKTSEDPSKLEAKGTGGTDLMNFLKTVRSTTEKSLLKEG
T2 sequence (P14902 whole entry): as above

As to `OC(CCC1CCCCC1)c1cc(Cl)cc2cncn12` (stereo not drawn) [Example A113, 1-(7-chloroimidazo[1,5-a]pyridin-5-yl)-3-cyclohexylpropan-1-ol], the IC50 came out at 1100 nM in experiment [1] (setting [4]) and 26 nM in experiment [3] (setting [5]). Also, the concentration giving a half-maximal response (EC50) in experiment [2] is 3220 nM.
For the compound `OC(c1cc(C(F)(F)F)cc2cncn12)C1CCCCCC1` (stereo not drawn) [Example A115, cycloheptyl(7-(trifluoromethyl)imidazo[1,5-a]pyridin-5-yl)methanol], the IC50 amounted to 320 nM in experiment [1] (setting [4]) and 180 nM in experiment [3] (setting [5]). Also, the EC50 in experiment [2] was found to be 3160 nM.
As for `OC(c1c(Cl)ccc2cncn12)C1CCCCC1` (stereo not drawn) [Example A116, (6-chloroimidazo[1,5-a]pyridin-5-yl)(cyclohexyl)methanol], the IC50 in experiment [1] (setting [4]) turned out to be 270 nM; in experiment [3] (setting [5]), 7.5 nM. The EC50 in experiment [2] came to 231 nM.
For the compound `OC(CC1CCCCC1)c1c(Cl)ccc2cncn12` (stereo not drawn) [Example A117, 1-(6-chloroimidazo[1,5-a]pyridin-5-yl)-2-cyclohexylethan-1-ol], the IC50 in experiment [1] (setting [6]) is 9700 nM; in experiment [3] (setting [7]) it was 28 nM. This compound displayed an EC50 in experiment [2] of 143 nM.
In the case of `OC(c1c(Br)ccc2cncn12)C1CCCCC1` (stereo not drawn) [Example A118, (6-bromoimidazo[1,5-a]pyridin-5-yl)(cyclohexyl)methanol], the IC50 in experiment [1] (setting [4]) was determined as 5700 nM; in experiment [3] (setting [5]) it was 15 nM. Moreover, a half-maximal effect in experiment [2] (EC50) was put at 420 nM.
Turning to `OC(CC1CCCCC1)c1c(Br)ccc2cncn12` (stereo not drawn) [Example A119, 1-(6-bromoimidazo[1,5-a]pyridin-5-yl)-2-cyclohexylethan-1-ol], the IC50 in experiment [1] (setting [6]) is 12000 nM; in experiment [3] (setting [7]) it was 22 nM. In addition, in experiment [2], it took 511 nM to reach a half-maximal effect (EC50).
`OC(c1c(Br)ccc2cncn12)C1CCCC1` (stereo not drawn) [Example A120, (6-bromoimidazo[1,5-a]pyridin-5-yl)(cyclopentyl)methanol]: the IC50 in experiment [1] (setting [4]) worked out at 3700 nM; in experiment [3] (setting [5]), 37 nM. The compound also gave an EC50 in experiment [2] of 1410 nM.
For `Cc1ccc2cncn2c1C(O)C1CCCCC1` (stereo not drawn) [Example A122, cyclohexyl(6-methylimidazo[1,5-a]pyridin-5-yl)methanol] the same measures were 430 nM, 28 nM and 268 nM.
Taken in the same sequence, the figures for `C#Cc1ccc2cncn2c1C(O)C1CCCCC1` (stereo not drawn) [Example A123, cyclohexyl(6-ethynylimidazo[1,5-a]pyridin-5-yl)methanol] were 7900 nM, 19 nM and 556 nM.
Taken in the same sequence, the figures for `OC(CC1CCCCC1)c1c(I)ccc2cncn12` (stereo not drawn) [Example A124, 2-cyclohexyl-1-(6-iodoimidazo[1,5-a]pyridin-5-yl)ethan-1-ol] were 8700 nM, 19 nM and 275 nM.
For `OC(c1c(I)ccc2cncn12)C1CCCCC1` (stereo not drawn) [Example A125, cyclohexyl(6-iodoimidazo[1,5-a]pyridin-5-yl)methanol], the IC50 in experiment [1] (setting [4]) came out at 5600 nM; in experiment [3] (setting [5]), 31 nM. The compound further yielded an EC50 in experiment [2] of 205 nM.
For `OC(c1c(C(F)(F)F)ccc2cncn12)C1CCCCC1` (stereo not drawn) [Example A126, cyclohexyl(6-(trifluoromethyl)imidazo[1,5-a]pyridine-5-yl)methanol] the same measures were 3100 nM, 65 nM and 291 nM.
Taken in the same sequence, the figures for `OC(CC1CCCCC1)c1c(C(F)(F)F)ccc2cncn12` (stereo not drawn) [Example A127, 2-cyclohexyl-1-(6-(trifluoromethyl)imidazo[1,5-a]pyridine-5-yl)ethan-1-ol] were 3500 nM, 44 nM and 165 nM.
Taken in the same sequence, the figures for `OC(CCC1CCCCC1)c1c(Cl)ccc2cncn12` (stereo not drawn) [Example A128, 1-(6-chloroimidazo[1,5-a]pyridin-5-yl)-3-cyclohexylpropan-1-ol] were 1100 nM, 46 nM and 2160 nM.
Take `OC(c1c(C2CC2)ccc2cncn12)C1CCCCC1` (stereo not drawn) [Example A129, cyclohexyl(6-cyclopropylimidazo[1,5-a]pyridin-5-yl)methanol]: the concentration for half-maximal inhibition (IC50) in experiment [1] (setting [4]) is 4700 nM; in experiment [3] (setting [5]) it was 30 nM. The compound further yielded an EC50 in experiment [2] of 69.5 nM.
